These are literature values, as cited in patent US20260315500A1, “SOLID CANNABINOID COMPOSITION FOR PARENTERAL USE” (Bender Analytical Holding B.V., priority 2023, published 2026).

≈ marks a conversion by molar mass, not a printed value.

One series has as its system neuronal and glial cells. As to conditions: preclinical; functional, neuroimaging, histologic and biochemical studies.
For series [1] the following is noted: 23° C.

Regarding `C=C(C)[C@@H]1CCC(C)=C[C@H]1c1c(O)cc(CCCCC)cc1O` [Cannabidiol], the neuroprotective effects entry with neuronal and glial cells was “protects neuronal and glial cells, with a remarkable effect on preserving normal myelinogenesis”.

Consider `CCCCCc1cc(O)c2c(c1)OC(C)(C)[C@@H]1CCC(C)=C[C@@H]21` [Tetrahydrocannabinol (THC), Tetrahydrocannabinol], for which, in series [1], the water solubility is 2.8 µg/mL (≈ 8.9 µM).
